Seven compounds from ChEMBL document CHEMBL5050844 (2019) can be followed below.

Assay [1] in a line: Induction of anti-CD3 antibodies-stimulated human CD8+ T cell activation at 10 uM assessed fold increase in cell proliferation measured by flow cytometry analysis. Also: reference of the scale not given here. It counts as functional, T cell line.
Assay [2] is described as follows: Induction of anti-CD3 antibodies-stimulated human CD4+ T cell activation in immunocompetent mouse assessed fold increase in CD25 expression at 135 mg/kg, po administered twice a day. Also: reference of the scale not given here. In kind it is functional.
The nature of assay [3]: Induction of anti-CD3 antibodies-stimulated human T cell activation at 10 uM assessed fold increase in GM-CSF secretion measured by ELISA assay. Also: reference of the scale not given here. It counts as functional, T cell line. (ELISA stands for enzyme-linked immunosorbent assay.)
The target of assay [4] is T1, E3 ubiquitin-protein ligase CBL-B (Homo sapiens, UniProt Q13191). The assay is described as follows: Inhibition of N-terminal Avi-tagged human CBL-B (36 to 427 residues) incubated with 60 nM Src kinase for 1.5 hrs followed by incubation with fluorescently labeled UbcH5B-Ub for 1 hr and measured by TR-FRET assay. It counts as single protein.
Assay [5] is described as follows: Induction of anti-CD3 antibodies-stimulated human CD8+ T cell activation in immunocompetent mouse assessed fold increase in CD25 expression at 135 mg/kg, po administered twice a day. Also: reference of the scale not given here. It counts as functional.
Assay [6] is described as follows: Induction of anti-CD3/CD28 antibodies-stimulated human T cell activation at 0.3 uM assessed fold increase in CD25 expression measured by ELISA assay. It counts as functional, T cell line.
Assay [7] is described as follows: Induction of anti-CD3 antibodies-stimulated human exhausted T cell activation assessed fold increase in GM-CSF secretion measured by ELISA assay. Also: reference of the scale not given here. In kind it is functional, T cell line.
The nature of assay [8]: Induction of anti-CD3/CD28 antibodies-stimulated human T cell activation at 1.11 uM assessed fold increase in IFN-gamma secretion measured by ELISA assay. It counts as functional, T cell line.
Assay [9] is described as follows: Induction of anti-CD3 antibodies-stimulated human CD4+ T cell activation in immunocompetent mouse assessed fold increase in CD25 expression at 180 mg/kg, po administered twice a day. Also: reference of the scale not given here. It counts as functional.
The nature of assay [10]: Induction of anti-CD3 antibodies-stimulated human exhausted CD4+ T cell activation assessed fold increase in CTLA4 expression measured by flow cytometry analysis. Also: reference of the scale not given here. In kind it is functional, T cell line.
Assay [11] can be described thus: Induction of anti-CD3/CD28 antibodies-stimulated human T cell activation at 10 uM assessed fold increase in IFN-gamma secretion measured by ELISA assay. It counts as functional, T cell line.
A short description of assay [12]: Induction of anti-CD3 antibodies-stimulated human CD8+ T cell activation in immunocompetent mouse assessed fold increase in CD25 expression at 180 mg/kg, po administered twice a day. Also: reference of the scale not given here. It counts as functional.
The nature of assay [13]: Induction of anti-CD3 antibodies-stimulated human T cell activation at 10 uM assessed fold increase in IFN-gamma secretion measured by ELISA assay. Also: reference of the scale not given here. It counts as functional, T cell line.
A short description of assay [14]: Induction of anti-CD3 antibodies-stimulated human T cell activation at 1 uM assessed fold increase in IL-2 secretion measured by ELISA assay. Also: reference of the scale not given here. In kind it is functional, T cell line.
Assay [15] is described as follows: Induction of anti-CD3/CD28 antibodies-stimulated human T cell activation at 10 uM assessed fold increase in GM-CSF secretion measured by ELISA assay. It counts as functional, T cell line.
Assay [16] is described as follows: Induction of anti-CD3 antibodies-stimulated human T cell activation at 8 uM assessed fold increase in IL-2 secretion measured by ELISA assay. Also: reference of the scale not given here. In kind it is functional, T cell line.
The nature of assay [17]: Induction of anti-CD3 antibodies-stimulated human CD8+ T cell activation in immunocompetent mouse assessed fold increase in CD25 expression at 90 mg/kg, ip administered thrice a day. Also: reference of the scale not given here. In kind it is functional.
The nature of assay [18]: Induction of anti-CD3 antibodies-stimulated human CD8+ T cell activation in immunocompetent mouse assessed fold increase in CD25 expression at 90 mg/kg, po administered twice a day. Also: reference of the scale not given here. In kind it is functional.
The nature of assay [19]: Induction of anti-CD3 antibodies-stimulated human CD4+ T cell activation in immunocompetent mouse assessed fold increase in CD25 expression at 90 mg/kg, po administered twice a day. Also: reference of the scale not given here. In kind it is functional.
Assay [20] can be described thus: Induction of anti-CD3 antibodies-stimulated human exhausted CD8+ T cell activation assessed fold increase in CTLA4 expression measured by flow cytometry analysis. Also: reference of the scale not given here. It counts as functional, T cell line. Background: A flow cytometer gives signals particle by particle.
The nature of assay [21]: Induction of anti-CD3 antibodies-stimulated human CD4+ T cell activation at 10 uM assessed fold increase in CD69 expression measured by flow cytometry analysis. Also: reference of the scale not given here. In kind it is functional, T cell line.
Assay [22] in a line: Induction of anti-CD3 antibodies-stimulated human CD8+ T cell activation at 1.11 uM assessed fold increase in cell proliferation measured by flow cytometry analysis. Also: reference of the scale not given here. In kind it is functional, T cell line.
The nature of assay [23]: Induction of anti-CD3/CD28 antibodies-stimulated human CD8+ T cell activation at 1.11 uM assessed fold increase in CD69 expression measured by flow cytometry analysis. In kind it is functional, T cell line.
The target of assay [24] is T1, E3 ubiquitin-protein ligase CBL-B. The assay is described as follows: Binding affinity towards N-terminal biotinylated Avi-tagged human CBL-B (36 to 427 residues) measured by surface plasmon resonance assay.

As usually defined, the IC50 is the midpoint of a concentration-inhibition curve. Lower therefore signals higher potency. What is called Kd is the equilibrium constant for the complex coming apart. Read a high Kd as a looser complex.

T1 sequence (Q13191 whole entry, the tested form may be a part): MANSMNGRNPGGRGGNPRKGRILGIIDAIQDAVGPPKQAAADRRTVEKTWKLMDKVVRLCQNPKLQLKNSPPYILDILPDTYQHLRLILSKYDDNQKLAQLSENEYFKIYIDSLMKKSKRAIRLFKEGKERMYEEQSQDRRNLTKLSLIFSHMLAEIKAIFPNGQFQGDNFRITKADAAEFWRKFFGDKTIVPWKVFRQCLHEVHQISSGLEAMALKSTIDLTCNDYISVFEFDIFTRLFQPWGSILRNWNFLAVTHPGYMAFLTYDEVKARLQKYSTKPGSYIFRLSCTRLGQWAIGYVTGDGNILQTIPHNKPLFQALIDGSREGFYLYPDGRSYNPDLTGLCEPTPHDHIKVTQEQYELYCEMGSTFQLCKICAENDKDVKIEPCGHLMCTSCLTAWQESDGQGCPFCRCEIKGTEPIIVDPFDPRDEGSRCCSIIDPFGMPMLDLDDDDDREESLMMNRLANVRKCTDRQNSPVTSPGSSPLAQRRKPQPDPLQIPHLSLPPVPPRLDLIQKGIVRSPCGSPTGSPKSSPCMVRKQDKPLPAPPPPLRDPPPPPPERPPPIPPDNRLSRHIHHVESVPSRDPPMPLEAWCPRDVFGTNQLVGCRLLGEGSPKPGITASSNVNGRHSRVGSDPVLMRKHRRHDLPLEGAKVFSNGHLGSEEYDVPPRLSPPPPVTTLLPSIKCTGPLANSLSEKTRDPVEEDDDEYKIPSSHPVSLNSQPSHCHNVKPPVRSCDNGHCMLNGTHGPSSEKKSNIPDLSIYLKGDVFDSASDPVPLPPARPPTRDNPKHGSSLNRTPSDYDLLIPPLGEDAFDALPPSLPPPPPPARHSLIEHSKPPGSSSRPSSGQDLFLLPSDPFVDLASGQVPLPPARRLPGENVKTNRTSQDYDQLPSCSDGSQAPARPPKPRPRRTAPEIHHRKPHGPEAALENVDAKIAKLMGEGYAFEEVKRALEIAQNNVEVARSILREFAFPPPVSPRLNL

For `C[C@@H](c1cc2c(c(C(F)(F)F)c1)CN(c1cccc(C3(Cc4nncn4C)COC3)c1)C2=O)N1CC[C@H](F)C1`, the “fold change (FC)” value in assay [1] was more than 4; in [2], 1.51; in [3], more than 4; in assay [5] it was 2.01; in [6], 1.31; in assay [7], 1.41. The “fold change (FC)” value in [8] is more than 4; in assay [9] it was 2.01; in assay [10], “<=1.4”; in assay [11], more than 4; in assay [12], 1; in assay [13] it was more than 4. Besides, the “fold change (FC)” value in assay [14] is on record as “>=0.201”; in [15], more than 4; in assay [16], “>=0.201”; in [17], 1; in [18] it was 1.51; in assay [19], 1. Besides, the “fold change (FC)” value in assay [20] is “<=1.4”; in [21] it was more than 1.601; in [22], more than 4; in assay [23], 1.201. In assay [4], the IC50 was less than 100 nM.

For `Cn1cnnc1CC1(c2cccc(N3Cc4c(cc(CN5CC(F)C5)cc4C(F)(F)F)C3=O)c2)COC1`, the “fold change (FC)” value is reported as more than 4 in assay [1]; 1 in assay [2]; more than 4 in assay [3]; less than 1 in assay [5]; 1.31 in assay [6]; more than 1.61 in [7]. Also, the “fold change (FC)” value in [8] is 3.01; in [9], 1; in assay [10] it was more than 1.61; in [11], more than 4; in assay [12], less than 1; in assay [13] it was more than 4. Further, the “fold change (FC)” value in assay [14] is reported as 0.151; in assay [15], more than 4; in assay [16] it was “>=0.201”; in assay [17], 1; in assay [18] it was 1; in assay [19] it was 1. For the same compound, the “fold change (FC)” value in assay [20] is reported as more than 1.61; in assay [21], more than 1.601; in assay [22], more than 4; in assay [23], 1.201. This compound also showed an IC50 in [4] of less than 100 nM.

Take `C[C@H](Cc1nncn1C)c1cccc(N2Cc3c(cc(CN4CC[C@](C)(O)C4)cc3C(F)(F)F)C2=O)c1`: the “fold change (FC)” value is more than 4 in assay [1]; more than 4 in assay [3]; 1.01 in [6]; more than 1.61 in assay [7]; 3.01 in assay [8]; 1.41 in assay [10]. For the same compound, the “fold change (FC)” value in [11] is given as more than 4; in [13], “<=2”; in [14], 0.101; in assay [15] it was more than 4; in [16] it was “>=0.201”; in assay [20] it was more than 1.61. Moreover, the “fold change (FC)” value in [21] is more than 1.601; in assay [22], more than 4; in [23] it was 1.201. In addition, the IC50 in assay [4] was less than 100 nM. In [24], the dissociation constant (Kd) is less than 100 nM.

Turning to `Cn1cnnc1[C@@H]1C[C@@H]1c1cccc(N2Cc3c(cccc3C(F)(F)F)C2=O)c1`, the “fold change (FC)” value is given as 3.01 in assay [1]; 1.51 in assay [2]; 2.01 in assay [3]; 1 in [5]; “>=1.76” in [6]; “<=1.4” in assay [7]. The “fold change (FC)” value in assay [8] is “<=2”; in assay [9], 2.01; in assay [10] it was “<=1.4”; in assay [11] it was 2.01; in assay [12] it was 1; in [13] it was 2.01. The “fold change (FC)” value in assay [14] is “<=0.05”; in assay [15] it was 2.01; in assay [16], “<=0.05”; in assay [17] it was 1; in assay [18], 1; in [19], 1. The “fold change (FC)” value in [20] was “<=1.4”; in assay [21] it was 1.201; in assay [22] it was “<=2”; in assay [23], “<=1.2”.

Regarding `Cn1cnnc1CC1(c2cccc(NC(=O)c3nc4c(C(F)(F)F)cccc4[nH]3)c2)COC1`, the “fold change (FC)” value is recorded as more than 4 in [1]; 2.01 in assay [3]; 1.31 in [6]; “<=1.4” in assay [7]; more than 4 in assay [8]; more than 1.61 in assay [10]. Besides, the “fold change (FC)” value in [11] is given as 2.01; in assay [13], 2.01; in [14] it was 0.101; in assay [15] it was more than 4; in assay [16], “>=0.201”; in assay [20] it was more than 1.61. Also, the “fold change (FC)” value in [21] was more than 1.601; in assay [22], more than 4; in [23] it was 1.201. Moreover, the IC50 in assay [4] was less than 100 nM. In [24], this compound showed a dissociation constant Kd of less than 100 nM.

On to `Cc1n[nH]c(C)c1-c1cc2c(c(C(F)(F)F)c1)CN(c1cccc(C3(Cc4nncn4C)COC3)c1)C2=O`, for which the “fold change (FC)” value in assay [1] was more than 4; in assay [3], 2.01; in [6], 1.01; in [7], “<=1.4”; in assay [8] it was “<=2”; in assay [10], more than 1.61. For the same compound, the “fold change (FC)” value in assay [11] is recorded as more than 4; in assay [13], “<=2”; in [14] it was 0.101; in [15] it was 2.01; in [16] it was “>=0.201”; in assay [20], more than 1.61. Besides, the “fold change (FC)” value is more than 1.601 in assay [21], 3.01 in assay [22] and 1.201 in [23]. The compound further gave a half-inhibitory concentration (IC50) in assay [4] of less than 100 nM. Also, the equilibrium dissociation constant (Kd) in assay [24] is less than 100 nM.

`C[C@H](Cc1nncn1C)c1cccc(N2Cc3c(cc(CN4CC(O)C4)cc3C(F)(F)F)C2=O)c1`: the “fold change (FC)” value in [1] was “<=2”; in assay [3], “<=1.5”; in [6], 1.01; in assay [7], 1.41; in assay [8], 2.01; in assay [10], more than 1.61. The “fold change (FC)” value in [11] is on record as more than 4; in [13], “<=2”; in assay [14], “>=0.201”; in assay [15], 1.51; in assay [16], “>=0.201”; in assay [20], more than 1.61. The “fold change (FC)” value in [21] is on record as 1.201; in [22] it was “<=2”; in [23], “<=1.2”. In addition, the IC50 in [4] is less than 100 nM. Also, the Kd in assay [24] was less than 100 nM.
